Data on 15 compounds can be found in patent US7776844B2, “N-(phosphonoalkyl)-amino acids, derivatives thereof and compositions and methods of use” (priority 2006, dated 2010).

SMILES strings stand for the structures. Read-outs that look alike come from different tables or passages of the source.

For test [1], the system named is X-linked ichthyosis with severe dry skin. The test can be described thus: Topical treatment of X-linked ichthyosis / severe dry skin, clinical evaluation. The note with it: Homo sapiens, read-out: improvement in contrast to untreated or vehicle control, clinical evaluation. It is filed as in vivo. The text has this:
For example, human subjects having severe dry skin or ichthyosis, topically applied 1%-5% N-(phosphonomethyl)-glycine creams to lesions for 2 to 3 weeks. After 2 to 3 weeks of topical application, the thick and scaly skin disappeared and the skin became smooth and normal in appearance. Clinical evaluation was judged to be 90% to 100% improvement compared to the untreated condition or when using a vehicle control.
(§1) The present invention will now be described in more detail with reference to the following non-limiting examples. In the initial tests for comparative studies, a control vehicle was always included. It was discovered that all the vehicle controls gave the same results as that of the untreated skin sites; no detectable effects of the controls have been found as judged by clinical evaluation.
(§2) For subjective disorders such as pain, itch or the like, the therapeutic effects were evaluated or judged by the subjects or patients; for example, if the pain or itch had disappeared within hours or days. For other detectable symptoms or syndromes, the therapeutic effects or improvements were evaluated or judged by medical professionals.
N-(phosphonomethyl)-glycine (5 g) was suspended in water (30 ml) and propylene glycol (10 ml), and concentrated ammonium hydroxide (2 ml) was added with stirring. The suspension became a clear solution, and was mixed with hydrophilic ointment (oil-in-water emulsion, 53 g). The white cream thus formulated had pH 3.8 and contained 5% N-(phosphonomethyl)-glycine. A subject who had X-linked ichthyosis with severe dry skin, having thick and rough skin with adherent scales, topically applied the above 5% N-(phosphonomethyl)-glycine cream to an involved skin site twice daily for two weeks. After one week of topical application, the adherent scales disappeared, and the skin became smooth and had 50% improvement in contrast to the untreated or vehicle control as judged by clinical evaluation. After two weeks of topical application, the treated skin became normal in appearance, and had 100% improvement in contrast to the untreated or vehicle control as judged by clinical evaluation.
A subject who had X-linked ichthyosis with severe dry skin, having thick and rough skin with adherent scales, topically applied the above 5% N-(phosphonomethyl)imino-diacetic acid cream to an involved skin site twice daily for two weeks. After one week of topical application, most adherent scales disappeared and the skin had 50% improvement in contrast to the untreated or vehicle control as judged by clinical evaluation. After two weeks of topical application, the scales disappeared completely and the treated skin became smooth, and had 90% improvement in contrast to the untreated or vehicle control as judged by clinical evaluation.
A subject who had X-linked ichthyosis with severe dry skin, having thick and rough skin with adherent scales, topically applied the above 5% N-(phosphonomethyl)-L-tyrosine cream to an involved skin site twice daily for 12 days. After 12 days of topical application, most adherent scales disappeared and the skin became smooth, and had 75% improvement in contrast to the untreated or vehicle control as judged by clinical evaluation.
A subject who had X-linked ichthyosis having thick and rough skin with adherent scales, topically applied the 5% N-(phosphonomethyl)-DL-asparagine cream to an involved skin site twice daily for three weeks. After one week of topical application, most adherent scales disappeared and the treated site appeared smooth. The skin had 75% improvement in contrast to the untreated or vehicle control as judged by clinical evaluation. After three weeks of topical application, the scales disappeared completely and the treated site felt smooth and normal in appearance. The skin had 100% improvement in contrast to the untreated or vehicle control as judged by clinical evaluation. […]

In test [2] the test system is hyperpigmented dark skin. As to the kind of experiment: Topical skin lightening of hyperpigmented dark skin, clinical evaluation. It is filed as in vivo, human. As to the method:
as §1, §2
A subject who had hyperpigmented dark skin, topically applied 5% N-(phosphonomethyl)-DL-asparagine cream prepared according to Example 7 to an involved skin site twice daily for four weeks. […] The treated site was 25% lighter in skin color in contrast to the untreated or vehicle control as judged by clinical evaluation. After four weeks of topical application, the treated site had substantial reduction in skin pigmentation. The treated site was 50% lighter in contrast to the untreated or vehicle control in skin color as judged by clinical evaluation.
A subject who had hyperpigmented dark skin, topically applied the above 5% N-(phosphonomethyl)-DL-asparagine solution to an involved skin site once every other day with occlusion for ten days. […] The treated site was 25% lighter in skin color as judged by clinical evaluation. After ten days of topical application, the treated site had substantial reduction in skin pigmentation. The treated site was 50% lighter in skin color in contrast to the untreated or vehicle control as judged by clinical evaluation.
A subject who had hyperpigmented dark skin, topically applied the above 5% N-(phosphonomethyl)-creatine solution to an involved skin site once every other day with occlusion for two weeks. […] The treated site was 25% lighter in skin color in contrast to the untreated or vehicle control as judged by clinical evaluation. After two weeks of topical application, the treated site had very substantial reduction in skin pigmentation. The treated site was 75% lighter in skin color in contrast to the untreated or vehicle control as judged by clinical evaluation.
A subject who had hyperpigmented dark skin, topically applied the above 5% N-(phosphonomethyl)-glycinamide solution to an involved skin site once every other day with occlusion for two weeks. […] The treated site was 25% lighter in skin color in contrast to the untreated or vehicle control as judged by clinical evaluation. After two weeks of topical application, the treated site had substantial reduction in skin pigmentation. The treated site was 50% lighter in skin color in contrast to the untreated or vehicle control as judged by clinical evaluation.
A subject who had hyperpigmented dark skin, topically applied the above 5% N-(phosphonomethyl)-L-glutamine solution to an involved skin site once every other day with occlusion for two weeks. After two weeks of topical application, the treated site had substantial reduction in skin pigmentation. The treated site had 50% lighter in skin color in contrast to the untreated or vehicle control as judged by clinical evaluation.

Test [3] concerns chronic plaque psoriasis. As to the kind of experiment: Topical treatment of chronic plaque psoriasis lesion, clinical evaluation. The format is in vivo. The following applies: Homo sapiens, read-out: improvement in contrast to untreated or vehicle control, clinical evaluation. As to the method:
as §1, §2
A subject had chronic plaque psoriasis with erythema, moderately thick and silvery scales. The subject topically applied twice daily the above white cream containing 5% N-(phosphonomethyl)-glycine ethyl ester to one psoriatic lesion for two weeks. At the end of two weeks, the erythema and silvery scales improved substantially, and the treated skin had 50% improvement in contrast to the untreated or vehicle control as judged by clinical evaluation.
A subject had chronic plaque psoriasis with erythema, moderately thick and silvery scales. The subject topically applied twice daily the above white cream containing 10% N-(phosphonomethyl)-L-proline to one psoriatic lesion for two weeks. At the end of two weeks, the erythema and silvery scales improved very substantially, and the treated skin had 75% improvement in contrast to the untreated or vehicle control as judged by clinical evaluation.
A subject had chronic plaque psoriasis with erythema, moderately thick and silvery scales. The subject topically applied twice daily the above white cream containing 5% N-(phosphonomethyl)-glycine propyl ester to one psoriatic lesion for two weeks. At the end of two weeks, the erythema and silvery scales improved very substantially, and the treated skin had 75% improvement in contrast to the untreated or vehicle control as judged by clinical evaluation.
A subject had chronic plaque psoriasis with erythema, moderately thick and silvery scales. The subject topically applied twice daily the above white cream containing 5% N-(phosphonomethyl)-glycine isopropyl ester to one psoriatic lesion for a week. At the end of one week, the erythema and silvery scales improved substantially, and the treated skin had 50% improvement in contrast to the untreated or vehicle control as judged by clinical evaluation.
A subject had chronic plaque psoriasis with erythema, moderately thick and silvery scales. The subject topically applied twice daily the above white cream containing 8% N-(phosphonomethyl)-glycinamide to one psoriatic lesion for three weeks. At the end of three weeks, the erythema and silvery scales disappeared almost completely, and the treated skin had 90% improvement in contrast to the untreated or vehicle control as judged by clinical evaluation.
A subject had chronic plaque psoriasis with erythema, moderately thick and silvery scales. The subject topically applied twice daily the above white cream containing 5% N-(phosphonomethyl)-L-tyrosine ethyl ester to one psoriatic lesion for two weeks. At the end of two weeks, the erythema and silvery scales improved noticeably and the treated skin had 25% improvement in contrast to the untreated or vehicle control as judged by clinical evaluation.
A subject had chronic plaque psoriasis with erythema, moderately thick and silvery scales. The subject topically applied twice daily the above white cream containing 10% N-(phosphonomethyl)-D-4-hydroxyphenylglycine to one psoriatic lesion for two weeks. […]

In test [4] the test system is itchy eczema. The test can be described thus: Topical relief of itch in itchy eczema, judged by subject. It is filed as in vivo, human. The following applies: for therapeutic evaluation, effective for immediate relief of itch: single topical application. The method, then:
as §1, §2
A subject, having itchy eczema on their right thigh, topically applied the above 8% N-(phosphonomethyl)-L-proline ethyl ester cream. […] Therapeutic evaluation was judged to be 100% effective in contrast to the untreated or vehicle control for immediate relief of itch.
A subject, having itchy eczema on their left leg, topically applied 7% N-(phosphonomethyl)-creatine cream prepared according to Example 17. […] Therapeutic evaluation was judged to be 100% effective in contrast to the untreated or vehicle control for immediate relief of itch.
A subject, having itchy eczema on their left thigh, topically applied the above 10% N-(phosphonomethyl)-glutamine. […] Therapeutic evaluation was judged to be 100% effective in contrast to the untreated or vehicle control for immediate relief of itch.

The mark [5] stands for this setting: 5% solution once every other day with occlusion, after seven days.
The mark [6] stands for this setting: 168 h, 5% cream twice daily, after one week.
The mark [7] stands for this setting: 336 h, 5% cream twice daily, end of two weeks.
Setting [8] is: 5% solution once every other day with occlusion, after two weeks.

Consider `NC(=O)CC(NCP(=O)(O)O)C(=O)O` (racemic) [N-(phosphonomethyl)-DL-asparagine], for which the inhibition in vivo at 5 % stood at 75% in test [1] (168 h) and 100% in test [1] (504 h). Besides, the “treated site lighter in skin color, clinical evaluation” value (“treated site lighter in skin color” for short) in test [2] (5% cream twice daily, after four weeks) is 50%; in test [2] (5% cream twice daily, after two weeks) it was 25%; in test [2] (setting [5]), 25%; in test [2] (5% solution once every other day with occlusion, after ten days) it was 50%.
With `CCCOC(=O)CNCP(=O)(O)O` [N-(phosphonomethyl)-glycine propyl ester], in test [3] (336 h), the inhibition in vivo at 5 % stood at 75%.
Consider `CCOC(=O)[C@H](Cc1ccc(O)cc1)NCP(=O)(O)O` [N-(phosphonomethyl)-L-tyrosine ethyl ester], for which the inhibition in vivo at 5 % in test [1] (setting [6]) and in test [3] (setting [7]) was 25% in each case.
On to `O=C(O)[C@H](Cc1ccc(O)cc1)NCP(=O)(O)O` [N-(phosphonomethyl)-L-tyrosine], for which the inhibition in vivo at 5 % in test [1] (288 h, 5% cream twice daily, after 12 days) was determined as 75%.
Regarding `O=P(O)(O)CNCCc1ccc(O)cc1` [N-(phosphonomethyl)-tyramine], the inhibition in vivo at 5 % in test [1] (168 h, 5% solution once every other day under occlusion, after one week) is 75%; in test [3] (setting [7]), 50%.
For the compound `CCOC(=O)CNCP(=O)(O)O` [N-(phosphonomethyl)-glycine ethyl ester], the inhibition in vivo at 5 % in test [3] (336 h) amounted to 50%.
For `O=C(O)CC[C@H](NCP(=O)(O)O)C(=O)O` [N-(phosphonomethyl)-L-glutamic acid], the inhibition in vivo at 8 % in test [3] (336 h, 8% cream twice daily, end of two weeks) stood at 50%.
On to `NC(=O)CC[C@H](NCP(=O)(O)O)C(=O)O` [N-(phosphonomethyl)-L-glutamine], for which, in test [1] (336 h, 5% solution once every other day (occlusion not stated), after two weeks), the inhibition in vivo at 5 % came out at 75%. Moreover, the inhibition in vivo at 5 % in test [1] (504 h, 5% solution once every other day (occlusion not stated), after three weeks) was found to be 100%. The “treated site lighter in skin color” value in test [2] (setting [8]) turned out to be 50%. In test [4] (10% cream), the “time the treated skin did not itch after application” value turned out to be 8 h; the “time until itch disappeared after topical application” value is listed as “within a few minutes”; the “therapeutic evaluation, effective for immediate relief of itch” value came to 100%.
In the case of `O=C(O)[C@H](NCP(=O)(O)O)c1ccc(O)cc1` [N-(phosphonomethyl)-D-4-hydroxyphenylglycine], the inhibition in vivo at 10 % in test [3] (336 h, 10% cream twice daily, end of two weeks) amounted to 70%.
Regarding `O=C(O)CN(CC(=O)O)CP(=O)(O)O` [N-(phosphonomethyl)imino-diacetic acid], the inhibition in vivo at 5 % in test [1] (168 h) came to 50%; in test [1] (336 h), 90%.
Take `O=C(O)[C@@H]1CCCN1CP(=O)(O)O` [N-(phosphonomethyl)-L-proline]: in test [3] (336 h), the inhibition in vivo at 10 % is 75%.
As for `O=C(O)CNCP(=O)(O)O` [N-(phosphonomethyl)-glycine], the inhibition in vivo at 5 % in test [1] (setting [6]) was 50%; in test [1] (336 h, 5% cream twice daily, after two weeks), 100%.
Take `CC(C)OC(=O)CNCP(=O)(O)O` [N-(phosphonomethyl)-glycine isopropyl ester]: in test [3] (168 h), the inhibition in vivo at 5 % was 50%.
As for `CCOC(=O)[C@@H]1CCCN1CP(=O)(O)O` [N-(phosphonomethyl)-L-proline ethyl ester], in test [4] (8% cream), the “time the treated skin did not itch after application” value was found to be 8 h; the “time until itch disappeared after topical application” value was “within a few minutes”; the “therapeutic evaluation, effective for immediate relief of itch” value is given as 100%.
Consider `NCC(=O)NCP(=O)(O)O` [N-(phosphonomethyl)-glycinamide], for which the values for the inhibition in vivo at 5 % in test [1] (168 h) and in test [1] (504 h) were 75% and 100%, respectively. Moreover, the inhibition in vivo at 8 % in test [3] (504 h) is 90%. Moreover, the results for the “treated site lighter in skin color” value in test [2] (setting [5]) and in test [2] (setting [8]) were 25% and 50%, respectively.
